Data reported in US20230024302A1, “2,3,5-TRISUBSTITUTED PYRAZOLO[1,5-A]PYRIMIDINE COMPOUNDS” (Arcus Biosciences, Inc., priority 2019, published 2023).
pIC50: −log10 of the molar value. Where two headings read alike, the source gives them in different places.

How the values were obtained:
[1] = biological target: T1, PI3Kγ (p120γ) (Homo sapiens, UniProt P48736); assay: Inhibition of PI3K kinase activity (ADP Glo), PI3Kγ; conditions: read-out: biochemical potency (PI3Kγ IC50)
T1 construct: purchased Promega V1761
T1 sequence (P48736 whole entry): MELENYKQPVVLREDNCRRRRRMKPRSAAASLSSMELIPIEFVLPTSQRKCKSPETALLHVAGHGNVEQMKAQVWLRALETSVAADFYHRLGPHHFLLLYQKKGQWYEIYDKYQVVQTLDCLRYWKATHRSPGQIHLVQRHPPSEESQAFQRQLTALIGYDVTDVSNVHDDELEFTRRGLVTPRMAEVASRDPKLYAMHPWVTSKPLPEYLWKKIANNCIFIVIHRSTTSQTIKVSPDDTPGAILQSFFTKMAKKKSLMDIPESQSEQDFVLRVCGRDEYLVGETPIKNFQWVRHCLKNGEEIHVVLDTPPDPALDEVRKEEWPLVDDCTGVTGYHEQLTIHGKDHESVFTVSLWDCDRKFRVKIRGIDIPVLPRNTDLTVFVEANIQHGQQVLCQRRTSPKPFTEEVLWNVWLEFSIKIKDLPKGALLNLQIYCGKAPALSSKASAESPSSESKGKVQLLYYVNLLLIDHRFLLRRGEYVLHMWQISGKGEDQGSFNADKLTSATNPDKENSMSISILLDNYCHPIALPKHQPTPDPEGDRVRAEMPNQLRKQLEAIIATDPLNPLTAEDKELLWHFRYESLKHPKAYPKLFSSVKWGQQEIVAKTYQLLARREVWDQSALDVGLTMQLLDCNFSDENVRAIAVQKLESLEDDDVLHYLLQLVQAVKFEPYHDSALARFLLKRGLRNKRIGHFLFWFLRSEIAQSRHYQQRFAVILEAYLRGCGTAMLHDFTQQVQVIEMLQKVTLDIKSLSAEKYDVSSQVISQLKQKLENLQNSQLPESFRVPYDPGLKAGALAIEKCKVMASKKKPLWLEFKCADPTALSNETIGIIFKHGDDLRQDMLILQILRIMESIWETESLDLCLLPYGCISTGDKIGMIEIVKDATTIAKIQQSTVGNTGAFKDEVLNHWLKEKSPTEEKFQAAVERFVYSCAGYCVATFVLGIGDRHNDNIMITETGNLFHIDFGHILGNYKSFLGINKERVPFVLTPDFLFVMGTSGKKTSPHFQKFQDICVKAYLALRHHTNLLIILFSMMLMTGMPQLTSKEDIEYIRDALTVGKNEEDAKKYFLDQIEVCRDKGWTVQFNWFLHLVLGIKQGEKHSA
Procedure, shortened: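 IC50 values come from a 4-parameter nonlinear fit of ADP-Glo luminescence, which measures ADP produced as PIP2 is phosphorylated to PIP3. The p120γ enzyme (2× stock 8 nM) sat with compound 1 h at rt before substrate (2× stocks: 50 μM ATP, 0.1 mg/ml PIP2) was added. Phosphorylation then proceeded 60 min at rt.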

[2] = biological target: T2, PI3Kγ (Homo sapiens, UniProt P48736); assay: PI3Kγ cellular assay in THP-1 cells (AKT pS473 AlphaLISA); format: cell-based
T2 construct: host or cells: THP-1
T2 sequence (P48736 whole entry): as above
Procedure, shortened: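 Endogenous AKT S473 phosphorylation, detected by AlphaLISA in lysates, serves as the PI3Kγ activity read-out in stimulated, serum-starved THP-1 cells (1.8×10^5/well).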

[3] = AKT pS473, read-out: cellular potency (PI3Kγ IC50)
[4] = Table 6, rhMCP-1 stimulated AKT pS473, read-out: cellular potency (PI3Kγ IC50)

Row | pIC50 [1] | pIC50 [2, 3] | pIC50 ([1]; Table 6, p120γ) | pIC50 [2, 4] | SMILES
1 | > 7.00 | 6.00 to 7.00 | – | – | C[C@@H](C1CC1)N1Cc2cc(-c3ccn4nc(N)c(C(=O)Nc5ccc(C#N)cc5)c4n3)cc(NS(C)(=O)=O)c2C1=O [Example 393]
2 | > 7.00 | 6.00 to 7.00 | – | – | C[C@@H](C1CC1)N1Cc2cc(-c3ccn4nc(N)c(C(=O)NC5CC5(C)C)c4n3)cc(NS(C)(=O)=O)c2C1=O (some centres unmarked) [Example 394]
3 | > 7.00 | 6.00 to 7.00 | – | – | C[C@@H](C1CC1)N1Cc2cc(-c3ccn4nc(N)c(C(=O)Nc5ccccc5F)c4n3)cc(NS(C)(=O)=O)c2C1=O [Example 397]
4 | > 7.00 | 6.00 to 7.00 | – | – | CC(C)[C@H](CO)NC(=O)c1c(N)nn2ccc(-c3cc4c(c(NS(C)(=O)=O)c3)C(=O)N([C@@H](C)C(F)(F)F)C4)nc12 [Example 399]
5 | > 7.00 | 6.00 to 7.00 | – | – | CC(C)[C@H](CO)NC(=O)c1c(N)nn2ccc(-c3cc4c(c(NS(C)(=O)=O)c3)C(=O)N([C@@H](C3CC3)C(F)(F)F)C4)nc12 [Example 400]
6 | > 7.00 | 6.00 to 7.00 | – | – | CC(C)[C@H](N1Cc2cc(-c3ccn4nc(N)c(C(=O)NC5CC5)c4n3)cc(NS(C)(=O)=O)c2C1=O)C(F)(F)F [Example 402]
7 | > 7.00 | 6.00 to 7.00 | – | – | C[C@H](N1Cc2cc(-c3ccn4nc(N)c(C(=O)Nc5ccccc5)c4n3)cc(NS(C)(=O)=O)c2C1=O)C(F)(F)F [Example 403]
8 | – | – | > 7.00 | > 7.00 | C[C@@H](C1CC1)N1Cc2cc(-c3ccn4nc(N)c(C(=O)NC5CC5)c4n3)cc(NS(=O)(=O)N(C)C)c2C1=O [Example 410]
9 | – | – | > 7.00 | 6.00 to 7.00 | C[C@@H](C1CC1)N1Cc2cc(-c3ccn4nc(N)c(C(=O)N[C@H]5CC[C@H](C(=O)O)CC5)c4n3)cc(OC(F)(F)F)c2C1=O [Example 411]
10 | – | – | > 7.00 | 6.00 to 7.00 | C[C@@H](C1CC1)N1Cc2cc(-c3ccn4nc(N)c(C(=O)N[C@H]5CCC(=O)NC5)c4n3)cc(OC(F)(F)F)c2C1=O [Example 413]
11 | – | – | > 7.00 | 6.00 to 7.00 | C[C@@H](C1CC1)N1Cc2cc(-c3ccn4nc(N)c(C(=O)NCc5cccnc5)c4n3)cc(OC(F)(F)F)c2C1=O [Example 414]
12 | – | – | > 7.00 | < 6.00 | C[C@@H](C1CC1)N1Cc2cc(-c3ccn4nc(N)c(C(=O)N[C@@H]5CNC[C@H]5O)c4n3)cc(OC(F)(F)F)c2C1=O [Example 418]
13 | – | – | > 7.00 | 6.00 to 7.00 | C[C@@H](C1CC1)N1Cc2cc(-c3ccn4nc(N)c(C(=O)Nc5ccc(C(C)(C)O)cc5)c4n3)cc(OC(F)(F)F)c2C1=O [Example 419]
14 | – | – | > 7.00 | < 6.00 | C[C@@H](C1CC1)N1Cc2cc(-c3ccn4nc(N)c(C(=O)Nc5ccccc5)c4n3)cc(OC(F)(F)F)c2C1=O [Example 427]
15 | – | – | > 7.00 | < 6.00 | C[C@@H](C1CC1)N1Cc2cc(-c3ccn4nc(N)c(C(=O)Nc5ccnc(C(F)(F)F)c5)c4n3)cc(OC(F)(F)F)c2C1=O [Example 428]
16 | – | – | > 7.00 | > 7.00 | Cc1nn(C)cc1NC(=O)c1c(N)nn2ccc(-c3cc4c(c(OC(F)F)c3)C(=O)N([C@@H](C)C3CC3)C4)nc12 [Example 429]
17 | – | – | > 7.00 | > 7.00 | C[C@@H](C1CC1)N1Cc2cc(-c3ccn4nc(N)c(C(=O)N[C@H]5C[C@](C)(O)C5)c4n3)cc(OC(F)F)c2C1=O [Example 430]
18 | – | – | > 7.00 | 6.00 to 7.00 | C[C@@H](C1CC1)N1Cc2cc(-c3ccn4nc(N)c(C(=O)NC5CC5)c4n3)cc(N3CC(O)C3)c2C1=O [Example 433]
19 | – | – | > 7.00 | 6.00 to 7.00 | C[C@H](CO)NC(=O)c1c(N)nn2ccc(-c3cc4c(c(N5CC(F)(F)C5)c3)C(=O)N([C@@H](C)C3CC3)C4)nc12 [Example 435]
20 | – | – | > 7.00 | 6.00 to 7.00 | C[C@@H](C1CC1)N1Cc2cc(-c3ccn4nc(N)c(C(=O)NC5CC5)c4n3)cc(N3CC(F)(F)C3)c2C1=O [Example 436]
21 | – | – | > 7.00 | 6.00 to 7.00 | C[C@H](CO)NC(=O)c1c(N)nn2ccc(-c3cc4c(c(O[C@H](C)C(F)(F)F)c3)C(=O)N([C@@H](C)C3CC3)C4)nc12 [Example 440]
22 | – | – | > 7.00 | < 6.00 | C[C@@H](C1CC1)N1Cc2cc(-c3ccn4nc(N)c(C(=O)N[C@H]5CCNC5=O)c4n3)cc(O[C@@H]3CCOC3)c2C1=O [Example 441]
23 | – | – | > 7.00 | < 6.00 | C[C@@H](C1CC1)N1Cc2cc(-c3ccn4nc(N)c(C(=O)N[C@@H]5CNC(=O)C5)c4n3)cc(O[C@@H]3CCOC3)c2C1=O [Example 443]

Continued, compound first:

Row | SMILES | pIC50 [1] | pIC50 [2, 3] | pIC50 ([1]; Table 6, p120γ) | pIC50 [2, 4]
24 | COC(=O)c1ccc(NC(=O)c2c(N)nn3ccc(-c4cc5c(c(NS(C)(=O)=O)c4)C(=O)N([C@@H](C)C4CC4)C5)nc23)cn1 [Example 395] | > 7.00 | 6.00 to 7.00 | – | –
25 | C[C@@H](C1CC1)N1Cc2cc(-c3ccn4nc(N)c(C(=O)Nc5ccccn5)c4n3)cc(NS(C)(=O)=O)c2C1=O [Example 396] | > 7.00 | 6.00 to 7.00 | – | –
26 | COc1ccccc1NC(=O)c1c(N)nn2ccc(-c3cc4c(c(NS(C)(=O)=O)c3)C(=O)N([C@@H](C)C3CC3)C4)nc12 [Example 398] | > 7.00 | < 6.00 | – | –
27 | C[C@H](N1Cc2cc(-c3ccn4nc(N)c(C(=O)Nc5cccnc5)c4n3)cc(NS(C)(=O)=O)c2C1=O)C(F)(F)F [Example 401] | > 7.00 | 6.00 to 7.00 | – | –
28 | C[C@H](CO)NC(=O)c1c(N)nn2ccc(-c3cc4c(c(N(C)S(C)(=O)=O)c3)C(=O)N([C@@H](C)C3CC3)C4)nc12 [Example 408] | – | – | > 7.00 | 6.00 to 7.00
29 | C[C@@H](C1CC1)N1Cc2cc(-c3ccn4nc(N)c(C(=O)NC5CC5)c4n3)cc(NS(=O)(=O)N3CCOCC3)c2C1=O [Example 409] | – | – | > 7.00 | 6.00 to 7.00
30 | C[C@@H](C1CC1)N1Cc2cc(-c3ccn4nc(N)c(C(=O)N[C@@H]5CCC(=O)NC5)c4n3)cc(OC(F)(F)F)c2C1=O [Example 412] | – | – | > 7.00 | 6.00 to 7.00
31 | C[C@H](N1Cc2cc(-c3ccn4nc(N)c(C(=O)NC5CC5)c4n3)cc(OC(F)(F)F)c2C1=O)C(F)(F)F [Example 415] | – | – | > 7.00 | 6.00 to 7.00
32 | Nc1nn2ccc(-c3cc4c(c(OC(F)(F)F)c3)C(=O)N([C@@H](CO)C3CC3)C4)nc2c1C(=O)NC1CC1 [Example 416] | – | – | > 7.00 | 6.00 to 7.00
33 | C[C@@H](C1CC1)N1Cc2cc(-c3ccn4nc(N)c(C(=O)N[C@H]5CNC[C@H]5O)c4n3)cc(OC(F)(F)F)c2C1=O [Example 417] | – | – | > 7.00 | < 6.00
34 | C[C@@H](C1CC1)N1Cc2cc(-c3ccn4nc(N)c(C(=O)Nc5cccc(C(C)(C)O)c5)c4n3)cc(OC(F)(F)F)c2C1=O [Example 420] | – | – | > 7.00 | 6.00 to 7.00
35 | C[C@@H](C1CC1)N1Cc2cc(-c3ccn4nc(N)c(C(=O)N[C@H]5CCCNC5)c4n3)cc(OC(F)(F)F)c2C1=O [Example 421] | – | – | > 7.00 | 6.00 to 7.00
36 | C[C@@H](C1CC1)N1Cc2cc(-c3ccn4nc(N)c(C(=O)Nc5cnccc5N)c4n3)cc(OC(F)(F)F)c2C1=O [Example 422] | – | – | > 7.00 | 6.00 to 7.00
37 | COc1ccc(NC(=O)c2c(N)nn3ccc(-c4cc5c(c(OC(F)(F)F)c4)C(=O)N([C@@H](C)C4CC4)C5)nc23)cn1 [Example 423] | – | – | > 7.00 | 6.00 to 7.00
38 | C[C@@H](C1CC1)N1Cc2cc(-c3ccn4nc(N)c(C(=O)N[C@H]5CNC[C@@H]5O)c4n3)cc(OC(F)(F)F)c2C1=O [Example 424] | – | – | > 7.00 | < 6.00
39 | C[C@@H](C1CC1)N1Cc2cc(-c3ccn4nc(N)c(C(=O)Nc5ccccc5C(C)(C)O)c4n3)cc(OC(F)(F)F)c2C1=O [Example 425] | – | – | > 7.00 | < 6.00
40 | C[C@@H](C1CC1)N1Cc2cc(-c3ccn4nc(N)c(C(=O)N[C@H]5CCC[C@@H](N)C5)c4n3)cc(OC(F)(F)F)c2C1=O [Example 426] | – | – | > 7.00 | 6.00 to 7.00
41 | C[C@H](N1Cc2cc(-c3ccn4nc(N)c(C(=O)NC5CC5)c4n3)cc(N3CC[C@@H](O)C3)c2C1=O)C(F)(F)F [Example 431] | – | – | > 7.00 | 6.00 to 7.00
42 | C[C@@H](C1CC1)N1Cc2cc(-c3ccn4nc(N)c(C(=O)N[C@H]5C[C@@](C)(O)C5)c4n3)cc(N3CC[C@@H](O)C3)c2C1=O [Example 432] | – | – | > 7.00 | 6.00 to 7.00
43 | C[C@H](N1Cc2cc(-c3ccn4nc(N)c(C(=O)N[C@@H](CO)C5CC5)c4n3)cc(N3CC[C@@H](O)C3)c2C1=O)C(F)(F)F [Example 434] | – | – | > 7.00 | 6.00 to 7.00
44 | C[C@@H](C1CC1)N1Cc2cc(-c3ccn4nc(N)c(C(=O)N[C@H]5CC[C@@](C)(O)CC5)c4n3)cc(N3CCN(C)CC3)c2C1=O [Example 437] | – | – | > 7.00 | 6.00 to 7.00
45 | C[C@@H](C1CC1)N1Cc2cc(-c3ccn4nc(N)c(C(=O)Nc5cccnc5)c4n3)cc(N3CC[C@@H](O)C3)c2C1=O [Example 438] | – | – | > 7.00 | 6.00 to 7.00
46 | C[C@H](CO)NC(=O)c1c(N)nn2ccc(-c3cc4c(c(OC5CC(F)(F)C5)c3)C(=O)N([C@@H](C)C3CC3)C4)nc12 [Example 439] | – | – | > 7.00 | 6.00 to 7.00
47 | C[C@@H](C1CC1)N1Cc2cc(-c3ccn4nc(N)c(C(=O)NC5CC5)c4n3)cc(O[C@H](C)C(F)(F)F)c2C1=O [Example 442] | – | – | > 7.00 | 6.00 to 7.00
48 | C[C@@H](C1CC1)N1Cc2cc(-c3ccn4nc(N)c(C(=O)N[C@H]5C[C@](C)(O)C5)c4n3)cc(S(C)(=O)=O)c2C1=O [Example 444] | – | – | > 7.00 | 6.00 to 7.00
49 | C[C@@H](C1CC1)N1Cc2cc(-c3ccn4nc(N)c(C(=O)N[C@H]5C[C@H](O)C5)c4n3)cc(S(C)(=O)=O)c2C1=O [Example 445] | – | – | > 7.00 | 6.00 to 7.00
